Experiments:
[1] = test system: EFO-21 (Ovarian Carcinoma); test: combination Emax (second highest fraction inhibited in the dose matrix, 72 h); higher = more inhibition; extreme values may be limits of the assay
In short: (§1)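 Cell lines in DMEM/F12 or RPMI with 10% FBS were plated in 1536-well plates, held 24 hours at 37°C, 5% CO2, then given two-drug dose matrices for 72 hours (DMSO typically 0.2%). Viability was read by CellTiter-Glo 2.0 luminescence and scaled as inhibition from 0 (vehicle wells) to 1 (blank wells). Combination Emax is the second-highest inhibition in the matrix; Bliss excess is observed combination effect minus expected EA + EB − EA·EB, EA and EB being single-agent effects.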

[2] = test system: SNU-387 (Hepatocellular Carcinoma); test: as above
In short: as §1

[3] = test system: DU-145 (Prostate Carcinoma); test: as above
In short: as §1

[4] = test system: NCI-H1355 (Lung Adenocarcinoma); test: as above
In short: as §1

[5] = test system: SKN (Other Solid Carcinomas); test: as above
In short: as §1

[6] = test system: SW982 (Other Solid Carcinomas); test: as above
In short: as §1

[7] = test system: MOG-G-UVW (Low Grade Glioma); test: as above
In short: as §1

[8] = test system: SW872 (Other Solid Carcinomas); test: as above
In short: as §1

[9] = test system: COLO-668 (Small Cell Lung Carcinoma); test: as above
In short: as §1

[10] = test system: KMRC-1 (Kidney Carcinoma); test: as above
In short: as §1

[11] = test system: SKN (Other Solid Carcinomas); test: Bliss excess, mean over the matrix (fraction); higher = more synergy
In short: as §1

[12] = test system: SK-LU-1 (Lung Adenocarcinoma); test: as above
In short: as §1

[13] = test system: LC-1-sq (Squamous Cell Lung Carcinoma); test: combination Emax (second highest fraction inhibited in the dose matrix, 72 h); higher = more inhibition; extreme values may be limits of the assay
In short: as §1

[14] = test system: NCI-H2122 (Lung Adenocarcinoma); test: as above
In short: as §1

[15] = test system: HCC1937 (Breast Carcinoma); test: as above
In short: as §1

[16] = test system: HCC2998 (Colorectal Carcinoma); test: as above
In short: as §1

[17] = test system: CADO-ES1 (Ewing's Sarcoma); test: as above
In short: as §1

[18] = test system: NCI-H1838 (Lung Adenocarcinoma); test: as above
In short: as §1

[19] = test system: G-401 (Other Solid Carcinomas); test: as above
In short: as §1

[20] = test system: NCI-H650 (Lung Adenocarcinoma); test: as above
In short: as §1
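Wherever Bliss excess, mean over the matrix is given: after 72 h of two-drug dosing.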

Structure (SMILES) | combination Emax [1] | combination Emax [2] | combination Emax [3] | combination Emax [4] | combination Emax [5] | combination Emax [6] | combination Emax [7] | combination Emax [8] | combination Emax [9] | combination Emax [10] | Bliss excess [11] | Bliss excess [12] | combination Emax [13] | combination Emax [14] | combination Emax [15] | combination Emax [16] | combination Emax [17] | combination Emax [18] | combination Emax [19] | combination Emax [20]
Cc1c2c(nn1C)CSCc1cc(n(C)n1)CSc1cc(c3ccccc3c1)OCCCc1c(C(=O)O)n(C)c3c-2c(Cl)ccc13 [AZD5991] + CS(=O)(=O)CCNCc1ccc(-c2ccc3ncnc(Nc4ccc(OCc5cccc(F)c5)c(Cl)c4)c3c2)o1 [Lapatinib] (first compound max 1 µM, 7x7, partner max 10 µM) | 0.277 | 0.459 | 0.198 | 0.326 | 0.223 | 0.621 | 0.311 | 0.32 | 0.285 | 0.54 | -0.0365 | -0.0423 |  |  |  |  |  |  |  | 
O=C(c1cc(Cc2n[nH]c(=O)c3ccccc23)ccc1F)N1CCN(C(=O)C2CC2)CC1 [Olaparib] + CC1(C)CCC(CN2CCN(c3ccc(C(=O)NS(=O)(=O)c4ccc(NCC5CCOCC5)c([N+](=O)[O-])c4)c(Oc4cnc5[nH]ccc5c4)c3)CC2)=C(c2ccc(Cl)cc2)C1 [Venetoclax] (first compound max 10 µM, 7x7, partner max 1 µM) | 0.0952 | 0.256 | 0.126 | 0.172 | 0.104 | 0.432 | 0.257 | 0.141 | 0.255 | 0.182 | -0.0516 | -0.0404 |  |  |  |  |  |  |  | 
O=C(c1cc(Cc2n[nH]c(=O)c3ccccc23)ccc1F)N1CCN(C(=O)C2CC2)CC1 [Olaparib] + COc1nnc2ccc(N3CCC(c4ccc(OCCN5CCN(C)C(=O)[C@H]5C)cc4)CC3)nn12 [AZD5153] (first compound max 10 µM, 7x7, partner max 1 µM) | 0.353 | 0.419 | 0.219 | 0.335 | 0.553 | 0.787 | 0.641 | 0.568 | 0.323 | 0.277 | -0.0557 | -0.0623 |  |  |  |  |  |  |  | 
C[C@@H](Nc1cc(F)cc(F)c1)c1cc(C(=O)N(C)C)cc2c(=O)cc(N3CCOCC3)oc12 [AZD8186] + CC(=O)c1c(C)c2cnc(Nc3ccc(N4CCNCC4)cn3)nc2n(C2CCCC2)c1=O [Palbociclib] (first compound max 10 µM, 7x7, partner max 10 µM) | 0.325 | 0.614 | 0.417 | 0.425 | 0.665 | 0.639 | 0.718 | 0.359 | 0.378 | 0.566 | 0.0142 | 0.0599 |  |  |  |  |  |  |  | 
C[C@@H](Oc1cc(-c2cnn(C3CCNCC3)c2)cnc1N)c1c(Cl)ccc(F)c1Cl [Crizotinib] + Cn1cnc2c(F)c(Nc3ccc(Br)cc3Cl)c(C(=O)NOCCO)cc21 [Selumetinib] (first compound max 10 µM, 7x7, partner max 10 µM) | 0.224 | 0.89 | 0.12 | 0.388 | 0.368 | 0.973 | 0.77 | 0.338 | 0.852 | 0.323 | -0.0421 | -0.0531 |  |  |  |  |  |  |  | 
CN(CCO)CC[C@H](CSc1ccccc1)Nc1ccc(S(=O)(=O)NC(=O)c2ccc(N3CCC([C@@H](O)c4ccccc4-c4ccc(Cl)cc4)CC3)cc2)cc1S(=O)(=O)C(F)(F)F [AZD4320] + CS(=O)(=O)CCNCc1ccc(-c2ccc3ncnc(Nc4ccc(OCc5cccc(F)c5)c(Cl)c4)c3c2)o1 [Lapatinib] (first compound max 1 µM, 7x7, partner max 10 µM) | 0.491 | 0.939 | 0.174 | 0.264 | 0.759 | 0.968 | 0.298 | 0.198 | 0.975 | 0.944 | -0.0188 | -0.0415 |  |  |  |  |  |  |  | 
Cc1nc(-c2cn3c(n2)-c2ccc(-c4cnn(C(C)(C)C(N)=O)c4)cc2OCC3)n(C(C)C)n1 [Taselisib] + O=C(Nc1ccc2[nH]nc(-c3ccncc3)c2c1)[C@@H]1CCN(CC(=O)N2CCN(c3ccc(-c4ncccn4)cc3)CC2)C1 [SCH772984] (first compound max 10 µM, 7x7, partner max 5 µM) | 0.409 | 0.996 | 0.342 | 0.656 | 0.735 | 0.908 | 0.884 | 0.636 | 0.855 | 0.543 | -0.0535 | 0.0898 |  |  |  |  |  |  |  | 
C=CCn1c(=O)c2cnc(Nc3ccc(N4CCN(C)CC4)cc3)nc2n1-c1cccc(C(C)(C)O)n1 [AZD1775] + CCc1c2c(nc3ccc(O)cc13)-c1cc3c(c(=O)n1C2)COC(=O)[C@]3(O)CC [SN-38] (first compound max 1 µM, partner max 0.3 µM) | 0.466 | 0.497 | 0.598 | 0.659 | 0.756 | 0.866 | 0.945 | 0.933 | 0.956 | 0.534 | -0.0126 | -0.133 |  |  |  |  |  |  |  | 
COc1cccc(OCCCN)c1-c1cc(Nc2cnc(C#N)cn2)n[nH]1 [Prexasertib] + C=CCn1c(=O)c2cnc(Nc3ccc(N4CCN(C)CC4)cc3)nc2n1-c1cccc(C(C)(C)O)n1 [AZD1775] (first compound max 1 µM, partner max 1 µM) | 0.742 | 0.729 | 0.691 | 0.756 | 0.488 | 0.825 | 0.943 | 0.933 | 0.881 | 0.627 | 0.0515 |  | 0.986 | 0.984 | 0.584 | 0.984 | 0.946 | 0.704 | 0.905 | 0.732
COc1cccc(OCCCN)c1-c1cc(Nc2cnc(C#N)cn2)n[nH]1 [Prexasertib] + Cc1cc2ncnn2cc1Nc1ncc2c(n1)n(C1CCOCC1)c(=O)n2C [AZD7648] (first compound max 1 µM, 7x7, partner max 10 µM) | 0.656 | 0.552 | 0.649 | 0.714 | 0.425 | 0.774 | 0.904 | 0.867 | 0.786 | 0.539 | -0.0238 |  | 0.944 | 0.984 | 0.537 | 0.954 | 0.94 | 0.54 | 0.588 | 0.653
CC1(C)CCC(CN2CCN(c3ccc(C(=O)NS(=O)(=O)c4ccc(NCC5CCOCC5)c([N+](=O)[O-])c4)c(Oc4cnc5[nH]ccc5c4)c3)CC2)=C(c2ccc(Cl)cc2)C1 [Venetoclax] + CN(C)CCCOc1ccc(-c2ccc3ncc4c(c3c2)n(C2CCOCC2)c(=O)n4C)cn1 [AZD0156] (first compound max 1 µM, 7x7, partner max 1 µM) | 0.29 | 0.201 | 0.0977 | 0.296 | 0.235 | 0.2 | 0.726 | 0.172 | 0.452 | 0.0988 | -0.0205 |  | 0.192 | 0.212 | 0.283 | 0.105 | 0.692 | 0.303 | 0.35 | 0.0987
CC1(C)CCC(CN2CCN(c3ccc(C(=O)NS(=O)(=O)c4ccc(NCC5CCOCC5)c([N+](=O)[O-])c4)c(Oc4cnc5[nH]ccc5c4)c3)CC2)=C(c2ccc(Cl)cc2)C1 [Venetoclax] + C[C@@H](Nc1cc(F)cc(F)c1)c1cc(C(=O)N(C)C)cc2c(=O)cc(N3CCOCC3)oc12 [AZD8186] (first compound max 1 µM, 7x7, partner max 3 µM) | 0.248 | 0.21 | 0.153 | 0.196 | 0.456 | 0.382 | 0.45 | 0.167 | 0.438 | 0.532 | -0.023 |  | 0.187 | 0.174 | 0.271 | 0.145 | 0.625 | 0.0996 | 0.345 | 0.142
COc1cccc(OCCCN)c1-c1cc(Nc2cnc(C#N)cn2)n[nH]1 [Prexasertib] + CN(C)CCCOc1ccc(-c2ccc3ncc4c(c3c2)n(C2CCOCC2)c(=O)n4C)cn1 [AZD0156] (first compound max 1 µM, 7x7, partner max 1 µM) | 0.731 | 0.531 | 0.624 | 0.709 | 0.421 | 0.759 | 0.88 | 0.863 | 0.758 | 0.558 | 0.0519 |  | 0.953 | 0.975 | 0.537 | 0.969 | 0.956 | 0.598 | 0.626 | 0.671
COc1cccc(OCCCN)c1-c1cc(Nc2cnc(C#N)cn2)n[nH]1 [Prexasertib] + C[C@@H]1COCCN1C2=NC(=NC(=C2)C3(CC3)[S@](=N)(=O)C)C4=C5C=CNC5=NC=C4 [AZD6738] (first compound max 1 µM, 7x7, partner max 10 µM) | 0.638 | 0.537 | 0.666 | 0.74 | 0.465 | 0.723 | 0.917 | 0.884 | 0.746 | 0.555 | -0.02 |  | 0.965 | 0.99 | 0.537 | 0.967 | 0.918 | 0.689 | 0.565 | 0.647

Source: the supplement of paper PMC11061612
